Data taken from patent US20030104393A1, “Blood assessment of injury” (priority 2000, published 2003).

Tests used:
neurons = assay: Status epilepticus produced by kainic acid: neuronal injury; format: in vivo, rat; details: kainic acid 10 mg/kg i.p., 24 hours later
Procedure: (§1) Status epilepticus is produced by intraperitoneally injecting a glutamate analogue/excitotoxin, kainic acid (10 mg/kg i.p.). Animals with kainate-induced seizures are observed following drug administration to ensure that they continue to have complex seizures over a 30 minute period.

brain = assay: Genes induced in the brain following kainic acid-induced seizures (microarray); format: in vivo, rat; set-up: key: NC = No Change
Procedure: as §1
All animals are allowed to survive for 24 hours following each treatment. At that time they are deeply anesthetized with ketamine (100 mg/kg) and xylazine (20 mg/kg) given intraperitoneally. Once anesthetized, the chest is opened and a direct cardiac puncture performed with a syringe and 10 cc of blood is aspirated. Immediately following removal of the blood, the animal is decapitated while deeply anesthetized and the brain removed.
One day after hypoxia, status epilepticus, hypoglycemia, ischemic stroke, and hemorrhagic stroke are produced in adult rats, RNA or protein is isolated from the blood cells and from the brains of the animals described in Example 1. The pattern of genes or proteins expressed in the blood cells following each of these types of injury—hypoxia, status epilepticus, hypoglycemia, ischemic stroke, and hemorrhagic stroke is captured on a commercially available microarray (Affymetrix chip). The pattern of gene or protein expression is defined using an expression method, which then forms a genomic or proteomic organ injury database, which is used in assessing injury.
Note that the genes induced in the blood are different from the genes induced in the brain. Therefore, different organs express different genes. In addition, the genes induced by hypoxia in the blood are different from the genes induced by hypoxia in the brain. That is, the same stimulus induces different genes in different organs. Lastly, even though similar genes are induced in the brain by ischemia (stroke) and kainic acid-induced seizures, there are many differences in the gene expression between the two. Therefore, the pattern of gene expression in the brains of ischemic animals is distinctive from the pattern of expression of the kainate animals, and this pattern can be used to diagnose the different conditions of stroke and status epilepticus, even though many of the same genes are induced in the two conditions.
In further support, the following Tables 5 and 6 list those genes induced in the brain following stroke, kainic induced seizures, and hypoxia as compared with untouched controls and sham-operated controls.

C=C(C)[C@H]1CN[C@H](C(=O)O)[C@H]1CC(=O)O [kainate, kainic acid]
Neuronal injury (neurons): diffuse neuronal injury
Kainic Acid Seizure (fold change) (brain; brain, D29769_at bone morphogenic protein-7): NC
Kainic Acid Seizure (fold change) (brain; brain, J03624_at Rat galanin (a neuropeptide) RNA): 3 fold change
Kainic Acid Seizure (fold change) (brain; brain, L20913_s_at vascular endothelial growth factor form 3 RNA): NC
Kainic Acid Seizure (fold change) (brain; brain, L32591RNA_g GADD45 RNA): 3 fold change
Kainic Acid Seizure (fold change) (brain; brain, L46593cds_at small proline-rich protein (spr) gene): 4 fold change
Kainic Acid Seizure (fold change) (brain; brain, M55534RNA_s Rat alpha-crystallin b chain RNA): 2 fold change
Kainic Acid Seizure (fold change) (brain; brain, M60616_at Rat collagenase (UMRCase) RNA): NC
Kainic Acid Seizure (fold change) (brain; brain, M63282_at Rat leucine zipper protein RNA): NC
Kainic Acid Seizure (fold change) (brain; brain, M90661_at Rattus norvegicus insulin receptor-related receptor-alpha subunit RNA): NC
Kainic Acid Seizure (fold change) (brain; brain, RC_AA891041 EST): NC
Kainic Acid Seizure (fold change) (brain; brain, U13396_at protein-tyrosine kinase (JAK2) RNA): NC
Kainic Acid Seizure (fold change) (brain; brain, U16674_at interleukin-12p40 RNA): NC
Kainic Acid Seizure (fold change) (brain; brain, U49930_g_at ICE-like cysteine protease (Lice) RNA): 2.7 fold change
Kainic Acid Seizure (fold change) (brain; brain, U77829RNA_s Rattus norvegicus gas-5 growth arrest homolog NCn-translated RNA sequence): 3.4 fold change
Kainic Acid Seizure (fold change) (brain; brain, U88572_at AMPA receptor interacting protein GRIP RNA): 3.5 fold change
Kainic Acid Seizure (fold change) (brain; brain, U099870_at Vmajor vault protein RNA): 2.5 fold change
Kainic Acid Seizure (fold change) (brain; brain, Y10619cds_at transcriptional regulator, Relax): 3.5 fold change
Kainic Acid Seizure (fold change) (brain; brain, a30543cds_s_ p-Meta-a RNA for CD44 surface protein from patent WO9117248): 4.4 fold change
Kainic Acid Seizure (fold change) (brain; brain, ab005900_at endothelial receptor for oxidized low density): NC
Kainic Acid Seizure (fold change) (brain; brain, af00898_at p58/p45 RNA, alternatively spliced form clone H): 3.3 fold change
Kainic Acid Seizure (fold change) (brain; brain, af28784cds# glial fibrillary acidic proteins alpha and delta (GFAP) gene): 6.2 fold change
Kainic Acid Seizure (fold change) (brain; brain, af030089UTR# Rattus norvegicus activity and neurotransmitter-induced early gene): 4 fold change
Kainic Acid Seizure (fold change) (brain; brain, af036537_at homocysteine respondent protein): NC
Kainic Acid Seizure (fold change) (brain; brain, af036537 homocysteine respondent protein HCYP2 RNA): NC
Kainic Acid Seizure (fold change) (brain; brain, af053362_at Rattus norvegicus death effector domain-containing protein DEFT RNA): NC
Kainic Acid Seizure (fold change) (brain; brain, af074608RNA MHC class I antigen (RT1.EC2) gene): 3 fold change
Kainic Acid Seizure (fold change) (brain; brain, af083269_at p41-Arc RNA): 3.3 fold change
Kainic Acid Seizure (fold change) (brain; brain, af083269_g_at p41-Arc RNA): 3.3 fold change
Kainic Acid Seizure (fold change) (brain; brain, af086624_s_a serine threonine kinase (pim-3) RNA): NC
Kainic Acid Seizure (fold change) (brain; brain, af087944RNA monocyte differentiation antigen CD14 gene): 2.6 fold change
Kainic Acid Seizure (fold change) (brain; brain, af092090_at cp151 RNA): 2.7 fold change
Kainic Acid Seizure (fold change) (brain; brain, aj222813_s_a precursor interleukin 18 (IL-18)): 3.8 fold change
Kainic Acid Seizure (fold change) (brain; brain, d00913_g_at intercellular adhesion molecule-1): NC
Kainic Acid Seizure (fold change) (brain; brain, d8557s_at RYB-a): 3.5 fold change
Kainic Acid Seizure (fold change) (brain; brain, d17370_g_at cystathionine gamma-lyase): 3.8 fold change
Kainic Acid Seizure (fold change) (brain; brain, d89069_f_at inducible carbonyl reductase): NC
Kainic Acid Seizure (fold change) (brain; brain, d90404_at cathepsin C): 2.8 fold change
Kainic Acid Seizure (fold change) (brain; brain, d90404_g_at cathepsin C): NC
Kainic Acid Seizure (fold change) (brain; brain, j00780_at rat preprorelaxin RNA): NC
Kainic Acid Seizure (fold change) (brain; brain, j04563_at Rat cAMP phosphodiesterase RNA): 5.4 fold change
Kainic Acid Seizure (fold change) (brain; brain; j04792_at ornithine decarboxylase ODC) gene): 1.7 fold change
Kainic Acid Seizure (fold change) (brain; brain, m13979_at Rat brain and all other organ glucose-transporter protein RNA): 2.1 fold change
Kainic Acid Seizure (fold change) (brain; brain, m18330_at Rat protein kinase C delta subspecies): 3.3 fold change
Kainic Acid Seizure (fold change) (brain; brain, m19257_at Rat cysosolic retinol-binding protein (CRBP) RNA): 4 fold change
Kainic Acid Seizure (fold change) (brain; brain, m32062_at Rat Fc-gamma receptor RNA): 1.5 fold change
Kainic Acid Seizure (fold change) (brain; brain, m34253_g_at Rat-interferon regulatory factor1 (IRF-a) RNA): 3 fold change
Kainic Acid Seizure (fold change) (brain; brain, m60753_s_at catechol-O-methyltransferase RNA): 4.5 fold change
Kainic Acid Seizure (fold change) (brain; brain, m63122_at Rat tumor necrosis factor receptor (TNF receptor)): 2.8 fold change
Kainic Acid Seizure (fold change) (brain; brain, m80633_at Rat adenylyl cyclase type (IV) RNA): 5.2 fold change
Kainic Acid Seizure (fold change) (brain; brain, rc_A1014163 EST): 2.3 fold change
Kainic Acid Seizure (fold change) (brain; brain, rc_aa799323— EST): NC
Kainic Acid Seizure (fold change) (brain; brain, rc_aa799448 EST): NC
Kainic Acid Seizure (fold change) (brain; brain, rc_aa799686 EST): 6.3 fold change
Kainic Acid Seizure (fold change) (brain; brain, rc_aa799773 EST): 4.7 fold change
Kainic Acid Seizure (fold change) (brain; brain, rc_aa800701 EST): NC
Kainic Acid Seizure (fold change) (brain; brain, rc_aa800962 EST): NC
Kainic Acid Seizure (fold change) (brain; brain, rc_aa866443 EST): NC
Kainic Acid Seizure (fold change) (brain; brain, rc_aa875032 EST): NC
Kainic Acid Seizure (fold change) (brain; brain, rc_aa875126 EST): 8.7 fold change
Kainic Acid Seizure (fold change) (brain; brain, rc_aa891576 EST): NC
Kainic Acid Seizure (fold change) (brain; brain, rc_aa892750 EST): NC
Kainic Acid Seizure (fold change) (brain; brain, rc_aa892775 EST): 2.3 fold change
Kainic Acid Seizure (fold change) (brain; brain, rc_aa892851 EST): NC
Kainic Acid Seizure (fold change) (brain; brain, rc_aa900476 EST): NC
Kainic Acid Seizure (fold change) (brain; brain, rc_aa926129_ EST): 4.9 fold change
Kainic Acid Seizure (fold change) (brain; brain, rc_aa945737 EST): NC
Kainic Acid Seizure (fold change) (brain; brain, rc_aa946044 EST): 2.8 fold change
Kainic Acid Seizure (fold change) (brain; brain, rc_ai6i39302 EST): NC
Kainic Acid Seizure (fold change) (brain; brain, rc_ai070295 EST): 1.9 fold change
Kainic Acid Seizure (fold change) (brain; brain, rc_ai71962 EST): 1.9 fold change
Kainic Acid Seizure (fold change) (brain; brain, rc_ai169756 EST): 1.7 fold change
Kainic Acid Seizure (fold change) (brain; brain, rc_ai171966 EST): 3.8 fold change
Kainic Acid Seizure (fold change) (brain; brain, rc_ai176456 EST): 2.3 fold change
Kainic Acid Seizure (fold change) (brain; brain, rc_ai233219 EST): NC
Kainic Acid Seizure (fold change) (brain; brain, rc_ai638945 EST): NC
Kainic Acid Seizure (fold change) (brain; brain, rc_ai639042): NC
Kainic Acid Seizure (fold change) (brain; brain, rc_ai639161 EST): 7.5 fold change
Kainic Acid Seizure (fold change) (brain; brain, rc_ai639233 EST): NC
Kainic Acid Seizure (fold change) (brain; brain, rc_ai639372_ EST): NC
Kainic Acid Seizure (fold change) (brain; brain, rc_ai639402 EST): NC
Kainic Acid Seizure (fold change) (brain; brain, rc_ai639457 EST): NC
Kainic Acid Seizure (fold change) (brain; brain, s77494_s_at lysyl oxidase {3Nuntranslated region} [rats, aorta smooth muscle cell): NC
Kainic Acid Seizure (fold change) (brain; brain, s82649_s_at Narp = neuronal activity-regulated pentraxin): 2.2 fold change
Kainic Acid Seizure (fold change) (brain; brain, u04835_at CREMdeltaC—G gene): 2.1 fold change
Kainic Acid Seizure (fold change) (brain; brain, u05014_at Rattus norvegicus Sprague/Dawley PHAS-a): 3.9 fold change
Kainic Acid Seizure (fold change) (brain; brain, u23407_at Rattus norvegicus cellular retinoic acid-binding protein II (CRABP II) RNA): 9.2 fold change
Kainic Acid Seizure (fold change) (brain; brain, u33500_g_at retinol dehydrogenase type II RNA): NC
Kainic Acid Seizure (fold change) (brain; brain, u78102_at krox20 RNA): NC
Kainic Acid Seizure (fold change) (brain; brain, x54686cds_at pJunB gene): NC
Kainic Acid Seizure (fold change) (brain; brain, x60351cds_s alpha B-crystallin): 2.4 fold change
Kainic Acid Seizure (fold change) (brain; brain, x62951RNA_s R. norvegicus RNA (pBUS19) with repetitive): NC
Kainic Acid Seizure (fold change) (brain; brain, x63434_at R. norvegicus RNA for urokinase-type plasminogen activator): NC
Kainic Acid Seizure (fold change) (brain; brain, x63594cds_g_ RL/IF-1 RNA): NC
Kainic Acid Seizure (fold change) (brain; brain, x71127_at complement protein C1q beta): 2.7 fold change
Kainic Acid Seizure (fold change) (brain; brain, x71127_s_at complement protein C1q beta chain): 3.6 fold change
Kainic Acid Seizure (fold change) (brain; brain, x74565cds_g_ TBFII RNA for polypyrimidine tract binding): 5.4 fold change
Kainic Acid Seizure (fold change) (brain; brain, x95986RNA#1 CBR gene): NC
Kainic Acid Seizure (fold change) (brain; brain, x98377_at RNA for emerin): NC
Kainic Acid Seizure (fold change) (brain; brain, x99121RNA#1 RT6 gene, exon 2, testis): NC
Kainic Acid Seizure (fold change) (brain; brain, z22812_at interleukin-1 receptor type 2): NC
